The target in one data set is recombinant MMP-8 (Homo sapiens, UniProt P22894). Nature of the data set: MMP compound screening, recombinant MMP-8 (SensoLyte 390 Generic MMP Activity Kit). It counts as biochemical. The note with it: read-out: inhibition of MMP-8 activity, % of total activity; for inhibition at 0.1 µM: 100 nM (0.1 uM) compound; for inhibition at 0.01 µM: 10 nM compound. The method, then:
(§1) The activities were determined using Fluorimetric SensoLyte® 390 Generic MMP Activity Kit from Anaspec (cat #72202). This assay kit can detect the activity of several MMPs such as MMP-1, 2, 7, 8, 9, 13, 14, 15, 16 and 24.
(§2) For screening MMP compounds, activated 2 nM of recombinant MMP-2, 8, 9 or 13 are pre-incubated with MMP compound (inhibitor) for 30 min at 37° C. The substrate is added and the inhibition of MMP activity is expressed as % of total activity (without the inhibitor incubation).

Another data set addresses recombinant MMP-13 (Homo sapiens, UniProt P45452). Nature of the data set: MMP compound screening, recombinant MMP-13 (SensoLyte 390 Generic MMP Activity Kit). It is filed as biochemical. The note with it: read-out: inhibition of MMP-13 activity, % of total activity; for inhibition at 0.1 µM: 100 nM (0.1 uM) compound; for inhibition at 0.01 µM: 10 nM compound. The method, then: as §1, §2

For the next data set, the target named is T1, recombinant MMP-2 (Homo sapiens, UniProt P08253).
T1 sequence (P08253 110-660): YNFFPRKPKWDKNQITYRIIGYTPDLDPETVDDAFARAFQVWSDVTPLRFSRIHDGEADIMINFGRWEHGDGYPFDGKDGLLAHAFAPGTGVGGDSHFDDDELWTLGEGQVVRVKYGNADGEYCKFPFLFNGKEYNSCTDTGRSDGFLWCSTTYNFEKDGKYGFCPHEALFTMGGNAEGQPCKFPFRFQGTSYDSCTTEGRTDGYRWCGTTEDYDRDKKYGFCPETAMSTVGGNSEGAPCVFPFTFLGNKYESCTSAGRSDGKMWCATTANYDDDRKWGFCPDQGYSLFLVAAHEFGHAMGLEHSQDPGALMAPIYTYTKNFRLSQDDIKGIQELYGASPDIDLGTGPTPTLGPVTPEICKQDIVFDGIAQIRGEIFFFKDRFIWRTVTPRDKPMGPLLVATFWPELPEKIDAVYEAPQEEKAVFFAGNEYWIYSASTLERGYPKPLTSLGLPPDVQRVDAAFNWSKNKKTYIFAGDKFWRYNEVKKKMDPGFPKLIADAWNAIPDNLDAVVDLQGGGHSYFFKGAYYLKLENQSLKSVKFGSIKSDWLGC
Kind of data set: MMP compound screening, recombinant MMP-2 (SensoLyte 390 Generic MMP Activity Kit). It counts as biochemical. The note with it: for IC50: 2 nM enzyme, 30 min pre-incubation at 37° C.; for inhibition at 0.01 µM: 10 nM compound. The method, then: as §1, §2

In another data set the target is recombinant MMP-9 (Homo sapiens, UniProt P14780). Nature of the data set: MMP compound screening, recombinant MMP-9 (SensoLyte 390 Generic MMP Activity Kit). It counts as biochemical. As to conditions: for inhibition at 0.01 µM: 10 nM compound. As for the experimental part: as §1, §2
Chain of recombinant MMP-9 (P14780 107-707 limits assumed, species assumed): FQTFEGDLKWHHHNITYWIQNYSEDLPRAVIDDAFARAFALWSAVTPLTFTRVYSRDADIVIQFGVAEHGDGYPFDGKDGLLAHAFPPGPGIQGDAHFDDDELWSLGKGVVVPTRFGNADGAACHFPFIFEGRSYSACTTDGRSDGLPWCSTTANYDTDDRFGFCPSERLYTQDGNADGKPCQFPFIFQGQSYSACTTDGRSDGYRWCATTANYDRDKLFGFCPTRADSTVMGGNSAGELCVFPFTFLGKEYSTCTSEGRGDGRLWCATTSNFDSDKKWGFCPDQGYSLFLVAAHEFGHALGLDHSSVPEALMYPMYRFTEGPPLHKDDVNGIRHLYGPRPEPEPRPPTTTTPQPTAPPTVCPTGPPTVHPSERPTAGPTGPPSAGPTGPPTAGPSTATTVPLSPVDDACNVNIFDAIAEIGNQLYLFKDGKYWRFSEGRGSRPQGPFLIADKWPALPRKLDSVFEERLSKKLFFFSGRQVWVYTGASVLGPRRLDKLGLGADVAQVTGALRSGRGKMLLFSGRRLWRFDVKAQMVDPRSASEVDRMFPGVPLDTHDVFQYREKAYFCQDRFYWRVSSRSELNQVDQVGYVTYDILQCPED
Data set [1] in a line: Biodistribution of M005: tumor and tissue fluorescence scans. It counts as in vivo, mouse. As to conditions: 4 h uptake time, Cy5 channel. The method, then:
FIGS. 3-5 are mouse scans before and 4 hours after […] injection.

In a further data set the test system is MMP. Kind of data set: MMP inhibition, general statement. It is filed as biochemical. As for the experimental part:
as §1, §2

[2] abbreviates: read-out: inhibition of MMP-2 activity, % of total activity.
Setting [3] is: read-out: inhibition of MMP-9 activity, % of total activity.

Chain of recombinant MMP-8 (P22894 101-467, species assumed): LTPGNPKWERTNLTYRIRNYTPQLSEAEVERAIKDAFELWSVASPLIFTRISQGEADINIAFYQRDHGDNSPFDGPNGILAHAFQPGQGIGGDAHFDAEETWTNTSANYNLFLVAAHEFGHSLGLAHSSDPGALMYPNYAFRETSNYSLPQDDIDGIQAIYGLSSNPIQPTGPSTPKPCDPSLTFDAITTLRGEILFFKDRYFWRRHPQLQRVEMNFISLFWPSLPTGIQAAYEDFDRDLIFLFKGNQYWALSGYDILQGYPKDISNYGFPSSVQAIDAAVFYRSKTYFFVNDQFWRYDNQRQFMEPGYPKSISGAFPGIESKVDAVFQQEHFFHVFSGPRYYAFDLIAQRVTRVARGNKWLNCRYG

The inhibition is the drop in the measured response relative to a control, in per cent. For `COc1ccc(-c2cn(CCN([C@@H](C(=O)NO)C(C)C)S(=O)(=O)c3ccc(OC)cc3)nn2)cc1` [M001], the results for the inhibition at 0.1 µM at recombinant MMP-8 and on recombinant MMP-13 were 92% and 99%, respectively.

In general, IC50 refers to the concentration needed to halve the response being measured. For the compound `CCN1\C(=C/C=C/C=C/C2=[N+](CCCCCC(=O)NCCOCCOCCOCCn3cc(CN([C@@H](C(=O)NO)C(C)C)S(=O)(=O)c4ccc(OC)cc4)nn3)c3ccc4c(S(=O)(=O)O)cc(S(=O)(=O)[O-])cc4c3C2(C)C)C(C)(C)c2c1ccc1c(S(=O)(=O)O)cc(S(=O)(=O)O)cc21` [M003], the inhibition at 0.1 µM at recombinant MMP-8 and on recombinant MMP-13 was 97% in each case. In addition, the IC50 at recombinant MMP-2 came out at 5.2 nM.

With `COc1ccc(S(=O)(=O)N(Cc2cn(CCOCCOCCOCCNC(=O)CCCCC[N+]3=C(/C=C/C=C/C=C4\N(C)c5ccc6ccccc6c5C4(C)C)C(C)(C)c4c3ccc3ccccc43)nn2)[C@@H](C(=O)NO)C(C)C)cc1` [M004], the figures for the inhibition at 0.1 µM on recombinant MMP-8 and at recombinant MMP-13 were 83% and 91%, respectively. In addition, at recombinant MMP-2, the IC50 amounted to 25 nM.

Regarding `CCN1C(=CC=CC=CC2=[N+](CCCCCC(=O)NCCCCC(NC(=O)Cn3cc(CCCF)nn3)C(=O)NCCOCCOCCOCCn3cc(CN(C(C(=O)NO)C(C)C)S(=O)(=O)c4ccc(OC)cc4)nn3)c3ccc4c(S(=O)(=O)O)cc(S(=O)(=O)[O-])cc4c3C2(C)C)C(C)(C)c2c1ccc1c(S(=O)(=O)O)cc(S(=O)(=O)O)cc21` (centres unmarked) [M005], the IC50 at recombinant MMP-2 came out at 2 nM; at recombinant MMP-9 (2 nM enzyme, 30 min pre-incubation at 37° C.), 2.1 nM. In data set [1] (with and without tracer injection), the “uptake in tumor and tissue (fluorescence)” value was “uptake above background fluorescence of tissue”. In addition, the “uptake into the brain” value in data set [1] (brain used as background tissue) is “no uptake of the tracer into the brain”.

Take `COc1ccc(S(=O)(=O)N(Cc2cn(CCOCCn3cc(CN([C@@H](C(=O)NO)C(C)C)S(=O)(=O)c4ccc(OC)cc4)nn3)nn2)[C@H](C(=O)NO)C(C)C)cc1` [M007]: in the data set on MMP, the “MMP inhibition (in words)” value is recorded as “good MMP inhibition”. Moreover, the inhibition at 0.01 µM amounted to 94% on recombinant MMP-8, 64% on recombinant MMP-2 (setting [2]), 89% at recombinant MMP-9 (setting [3]) and 96% at recombinant MMP-13. The inhibition at 0.1 µM at recombinant MMP-8 worked out at 100%; on recombinant MMP-2 (100 nM (0.1 uM) compound, read-out: inhibition of MMP-2 activity, % of total activity) it was 95%; on recombinant MMP-9 (100 nM (0.1 uM) compound, read-out: inhibition of MMP-9 activity, % of total activity), 100%; on recombinant MMP-13, 99%.

As to `COc1ccc(S(=O)(=O)N(Cc2cn(CCOCCn3cc(CCCF)nn3)nn2)[C@@H](C(=O)NO)C(C)C)cc1` [M008], the inhibition at 0.01 µM on recombinant MMP-8 is 95%; at recombinant MMP-2 (setting [2]), 82%; at recombinant MMP-9 (setting [3]) it was 78%; at recombinant MMP-13 it was 82%.

For `COc1ccc(S(=O)(=O)N(Cc2cn(CCOCCOCCOCCNC(=O)CCC(NC(=O)Cn3cc(CCCF)nn3)C(=O)NCCOCCOCCOCCn3cc(CN([C@@H](C(=O)NO)C(C)C)S(=O)(=O)c4ccc(OC)cc4)nn3)nn2)[C@@H](C(=O)NO)C(C)C)cc1` (some centres unmarked) [M009], the figures for the inhibition at 0.01 µM on recombinant MMP-8, on recombinant MMP-2 (setting [2]) and at recombinant MMP-13 were 46%, 59% and 64%, respectively. Besides, the “inhibition of MMP-9 activity, % of total activity” value at recombinant MMP-9 (concentration not given) came to 48%.

Take `COc1ccc(S(=O)(=O)N(Cc2cn(CCOCCOCCOCCNC(=O)CCC(NC(=O)Cn3cc(CCCF)nn3)C(=O)NCCOCCOCCOCCn3cc(CN([C@@H](C(=O)NOC(C)(C)C)C(C)C)S(=O)(=O)c4ccc(OC)cc4)nn3)nn2)[C@@H](C(=O)NO)C(C)C)cc1` (some centres unmarked) [M010]: the inhibition at 0.01 µM at recombinant MMP-8 is 13%; at recombinant MMP-2 (setting [2]), 28%; on recombinant MMP-9 (setting [3]) it was 2%; on recombinant MMP-13, 10%.

With `COc1ccc(S(=O)(=O)N(Cc2cn(CCOCCNC(=O)c3cc(C(=O)NCCOCCn4cc(CN([C@@H](C(=O)NO)C(C)C)S(=O)(=O)c5ccc(OC)cc5)nn4)cc(-n4cc(CCCF)nn4)c3)nn2)[C@H](C(=O)NO)C(C)C)cc1` [M011], the inhibition at 0.01 µM on recombinant MMP-8 came to 57%; at recombinant MMP-2 (setting [2]) it was 50%; on recombinant MMP-9 (setting [3]), 55%; on recombinant MMP-13, 75%.

With `COc1ccc(S(=O)(=O)N(Cc2cn(CCOCCNC(=O)c3cc(C(=O)O)cc(-n4cc(CCCF)nn4)c3)nn2)[C@@H](C(=O)NO)C(C)C)cc1` [M013], the inhibition at 0.01 µM on recombinant MMP-8 is 84%; at recombinant MMP-2 (setting [2]), 66%; on recombinant MMP-9 (setting [3]), 67%; on recombinant MMP-13, 79%.

For the origin of these results see patent US9023318B2, “Compounds with matrix-metalloproteinase inhibitory activity and imaging agents thereof” (Siemens Medical Solutions USA, Inc., priority 2011, dated 2015).
